This note sets out measurements from patent US8940730B2, “Methods and compositions of treating a Flaviviridae family viral infection” (The Board of Trustees of the Leland Stanford Junior …, priority 2007, dated 2015).

The subject of one series is HCV 1b RNA replicon. Description: Luciferase assay for HCV genotype 1b replicon reporter cell lines. (In general: A replicon is a self-replicating genome or part of one, used to study replication in cells.)
In the next series the test system is Huh7 cell line. Description: MTT assay for HCV replicon reporter cell lines (cell toxicity). The note with it: Homo sapiens. It is filed as cell-based. On the technique in general: Tetrazolium dyes change colour on reduction, which living cells bring about.
Series [1] concerns HCV genotype 2a infectious clone. Description: HCV genotype 2a infectious clone assay (Renilla luciferase). Format: cell-based. As to conditions: % replication activity of control with no test compound; for activity at 5 µM: Hepatitis C virus, read-out: 2a (% activity @ 5 μM), 5 μM. The method, then: The assays in parts A and B were used to generate the genotype 1b inhibitory activity and related cell toxicity (viability) data supported herein. This assay has been used to generate the genotype 2a inhibitory activity data supported herein.
(§1) 1) Wash cells once with PBS, trypsinize. […] Mix twice by pipeting. […] Make a common stock from all tubes. […] 15) Incubate for 24 hr before treatment.
(§2) 3) Repeat daily for 2 more days.

The subject of a further series is Huh7.5 cells. The note with it: human, 3 days. The method, then: as §1, §2
1) Alamar blue assay—a) Include medium for background subtraction (and also for seeing change in color easily). b) Aspirate medium. c) Make a stock of medium plus 10% Alamar blue. Total volume per well is 100 μl. d) Incubate for 2-2.5 hrs at 37° C. (or until there is a color change). c) Read plates at flex station.

The next series relates to HCV RNA replication. Description: Luciferase assay of HCV RNA replication (Table 3). The note with it: Hepatitis C virus, read-out: Residual Luciferase activity.
The mark [2] stands for this setting: Hepatitis C virus, Huh-7, 48 h, read-out: 1b EC50, 1b replicon, Huh7, 48 hours, top concentration 25 μM.
[3] abbreviates: Huh-7, cell toxicity, MTT, top concentration 25 μM, read-out: Cell Viability EC50.
Where [4] appears, read: Huh-7, read-out: Cell Viability EC50.

Where two headings read alike, the source gives them in different places.

For `COc1cncc(-c2ccc3c(c2)c(OCCCN2CCC[C@@H]2C)nn3Cc2ccc(Cl)cc2)c1` [EBP898], the EC50 is 5.3 µM with HCV 1b RNA replicon (setting [2]) and more than 25 µM with Huh7 cell line (setting [3]).
As to `C[C@H]1CCCN1CCCOc1nn(Cc2ccc(Cl)cc2)c2ccc(N(C)c3ccccc3)cc12` [EBP925], the EC50 was 5.7 µM in the series on HCV 1b RNA replicon (setting [2]) and more than 25 µM in the series with Huh7 cell line (setting [3]).
For `C[C@H]1CCCN1CCCOc1nn(Cc2ccc(Cl)cc2)c2ccc(-c3ccncc3)cc12` [EBP904], the EC50 was 8.2 µM with HCV 1b RNA replicon (setting [2]) and more than 25 µM with Huh7 cell line (setting [3]).
As for `Cc1ccncc1-c1ccc2c(c1)c(OCCCN1CCC[C@@H]1C)nn2Cc1ccc(Cl)cc1` [EBP901], the figures for the EC50 in the series on HCV 1b RNA replicon (setting [2]) and in the series with Huh7 cell line (setting [3]) were 5.5 µM and more than 25 µM, respectively.
As for `CC(=O)Nc1ccc(-c2ccc3c(c2)c(OCCCN2CCC[C@@H]2C)nn3Cc2ccc(Cl)cc2)cn1` [EBP900], the EC50 in the series with HCV 1b RNA replicon (setting [2]) is 5.6 µM; with Huh7 cell line (setting [3]) it was more than 25 µM.
On to `Cc1ccc2c(c1)c(OCCN1CCCCC1)nn2Cc1ccccc1` [EBP176], for which the activity at 5 µM in series [1] was found to be 58%. In addition, the “2a cell viability (@ 5 μM)” value in the series with Huh7.5 cells was 98%.
For the molecule `COc1ccc(-c2ccc3c(c2)c(OCCCN2CCC[C@@H]2C)nn3Cc2ccc(Cl)cc2)cn1` [EBP902], the EC50 was 8.3 µM in the series on HCV 1b RNA replicon (setting [2]) and more than 25 µM with Huh7 cell line (setting [3]).
With `c1ccc2c(c1)c(OCCN1CCCC1)nn2CC1CCCNC1` (centres unmarked) [EBP360], in series [1], the activity at 5 µM amounted to 80%. In addition, in the series on Huh7.5 cells, the “2a cell viability (@ 5 μM)” value is on record as 92%.
Regarding `C[C@H]1CCCN1CCCOc1nn(Cc2ccc(Cl)cc2)c2ccc(-c3ccc(N4CCOCC4)nc3)cc12` [EBP899], the EC50 was 2.2 µM in the series on HCV 1b RNA replicon (setting [2]) and more than 25 µM with Huh7 cell line (setting [3]).
On to `Clc1ccc(Cn2nc(OCCCN3CCC[C@H]3CN3CCCC3)c3cc(Cl)ccc32)cc1` [EBP649], for which the figures for the EC50 with HCV 1b RNA replicon (setting [2]) and in the series on Huh7 cell line (setting [3]) were 5.6 µM and more than 25 µM, respectively.
In the case of `c1ccc2c(c1)c(OCCN1CCCC1)nn2Cc1ccncc1` [EBP357], the activity at 5 µM in series [1] turned out to be 77%. Besides, the “2a cell viability (@ 5 μM)” value with Huh7.5 cells is on record as 94%.
With `C[C@H]1CCCN1CCCOc1nn(Cc2ccc(Cl)cc2)c2ccc(N(C)Cc3ccccc3)cc12` [EBP924], the EC50 was 5.7 µM in the series on HCV 1b RNA replicon (setting [2]) and more than 25 µM with Huh7 cell line (setting [3]).
Turning to `O[C@H]1CCN(CCOc2nn(Cc3ccc(Cl)cc3)c3ccccc23)C1` [EBP400], in series [1], the activity at 5 µM is 84%. Also, in the series on Huh7.5 cells, the “2a cell viability (@ 5 μM)” value amounted to 100%.
`COC(=O)c1cccc(Cn2nc(OCCN3CCCC3)c3ccccc32)c1` [EBP338]: the activity at 5 µM in series [1] came out at 79%. Also, the “2a cell viability (@ 5 μM)” value in the series on Huh7.5 cells was determined as 100%.
As for `Cc1ccc(Cn2nc(OCCN3CCCC3)c3ccccc32)cc1` [EBP335], the activity at 5 µM in series [1] was 73%. Further, in the series with Huh7.5 cells, the “2a cell viability (@ 5 μM)” value was 10%.
In the case of `c1cncc(Cn2nc(OCCN3CCCC3)c3ccccc32)c1` [EBP356], the activity at 5 µM in series [1] was determined as 68%. Moreover, in the series on Huh7.5 cells, the “2a cell viability (@ 5 μM)” value came to 95%.
Consider `c1ccc(Cn2nc(OCCCN3CCCC3)c3ccccc32)cc1` [EBP177], for which the activity at 5 µM in series [1] was found to be 53%. In addition, the “2a cell viability (@ 5 μM)” value in the series on Huh7.5 cells is reported as 100%.
For `C[C@H](COc1nn(Cc2ccc(Cl)cc2)c2ccccc12)CN1CCC[C@H]1CO` [EBP454], in series [1], the activity at 5 µM is 69%. For the same molecule, the “2a cell viability (@ 5 μM)” value with Huh7.5 cells worked out at 93%.
Turning to `O[C@@H]1CCN(CCCOc2nn(Cc3ccc(Cl)cc3)c3ccc(Cl)cc23)C1` [EBP644], the EC50 with HCV 1b RNA replicon (setting [2]) was 7.5 µM; in the series with Huh7 cell line (setting [3]) it was more than 25 µM.
For `C[C@H]1CCCN1CCCOc1nn(Cc2ccc(Cl)cc2)c2ccc(-c3cnc(N)nc3)cc12` [EBP903], in that order: 6.5 µM and more than 25 µM.
With `Clc1ccc(Cn2nc(OCC3CCCNC3)c3cc(Cl)ccc32)cc1` (centres unmarked) [EBP590], the figures for the EC50 with HCV 1b RNA replicon (setting [2]) and with Huh7 cell line (setting [3]) were 7.3 µM and 11 µM, respectively.
As for `C[C@H]1CCCN1CCCOc1nn(Cc2ccc(Cl)cc2)c2ccc(-c3ccoc3)cc12` [EBP864], the EC50 in the series with HCV 1b RNA replicon (setting [2]) was 6.4 µM; in the series on Huh7 cell line (setting [3]), more than 25 µM.
As to `Nc1ccc2c(c1)c(OCCCN1CCCC1)nn2Cc1ccc(Cl)cc1` [EBP531], the EC50 was 3.9 µM with HCV 1b RNA replicon (setting [2]) and more than 25 µM with Huh7 cell line (setting [3]).
In the case of `OC[C@@H]1CCCN1CCCOc1nn(Cc2ccc(Cl)cc2)c2ccc(Cl)cc12` [EBP647], the EC50 with HCV 1b RNA replicon (setting [2]) is 7.6 µM; in the series with Huh7 cell line (setting [3]), more than 25 µM.
In the case of `C[C@H]1CCCN1CCCOc1nn(Cc2ccc(Cl)cc2)c2ccc(NC3CCCCC3)cc12` [EBP917], the figures for the EC50 with HCV 1b RNA replicon (setting [2]) and in the series on Huh7 cell line (setting [3]) were 8 µM and more than 25 µM, respectively.
On to `Clc1ccc(Cn2nc(OCCCN3CC4CC3CO4)c3ccccc32)cc1` (centres unmarked) [EBP528], for which the EC50 with HCV 1b RNA replicon (setting [2]) was 7.9 µM; in the series on Huh7 cell line (setting [4]), 8.4 µM.
As for `OCC1CCN(CCCOc2nn(Cc3ccc(Cl)cc3)c3ccccc23)CC1` [EBP502], the EC50 in the series on HCV 1b RNA replicon (setting [2]) was 4.2 µM; in the series on Huh7 cell line (setting [3]), more than 25 µM.
Take `C[C@H]1CCCN1CCCOc1nn(Cc2ccc(Cl)cc2)c2ccccc12` [EBP389]: the “2a (% activity @ 5 μM)” value in series [1] (5 μM) is recorded as 44%.
For `C[C@@H]1CCCN1CCCOc1nn(Cc2ccc(Cl)cc2)c2ccc(Cl)cc12` [EBP645], the EC50 was 8 µM in the series on HCV 1b RNA replicon (setting [2]) and more than 25 µM in the series with Huh7 cell line (setting [3]).
As to `C[C@H]1CCCN1CCCOc1nn(Cc2ccc(Cl)cc2)c2ccc(N3CCCCC3)cc12` [EBP865], the EC50 in the series on HCV 1b RNA replicon (setting [2]) was found to be 8.2 µM.
On to `O[C@@H]1CN(CCCOc2nn(Cc3ccc(Cl)cc3)c3ccccc23)C[C@@H]1O` [EBP514], for which the EC50 with HCV 1b RNA replicon (setting [2]) is 5.1 µM; with Huh7 cell line (setting [3]) it was more than 25 µM.
In the case of `C[C@H]1CCCN1CCCOc1nn(Cc2ccc(Cl)cc2)c2ccc(Br)cc12` [EBP743], in the series on HCV 1b RNA replicon (setting [2]), the EC50 is 8.1 µM.
For the molecule `C[C@H]1CCCN1CCCOc1nn(Cc2ccc(Cl)cc2)c2ccc(-c3cccnc3)cc12` [EBP897], the figures for the EC50 in the series on HCV 1b RNA replicon (setting [2]) and with Huh7 cell line (setting [3]) were 7.2 µM and more than 25 µM, respectively.
Turning to `C[C@H]1CCCN1CCCOc1nn(Cc2ccc(Cl)cc2)c2ccc(N3CCCCCC3)cc12` [EBP918], the EC50 in the series with HCV 1b RNA replicon (setting [2]) was 8.2 µM; with Huh7 cell line (setting [3]), 11 µM.
As to `Clc1ccc(Cn2nc(OCCCCN3CCCC3)c3ccccc32)cc1` [EBP548], the EC50 in the series with HCV 1b RNA replicon (setting [2]) was 3.2 µM; in the series on Huh7 cell line (setting [3]), more than 25 µM.
With `COC[C@H]1CCCN1CCCOc1nn(Cc2ccc(Cl)cc2)c2ccc(N(C)c3ccccc3)cc12` [EBP522], the EC50 in the series with HCV 1b RNA replicon (setting [2]) was 6 µM; in the series with Huh7 cell line (setting [3]), more than 25 µM.
Take `Clc1ccc(Cn2nc(OCCCN3CC=CC3)c3ccccc32)cc1` [EBP519]: the EC50 was 18 µM in the series with HCV 1b RNA replicon (setting [2]) and more than 25 µM in the series on Huh7 cell line (setting [4]).
Turning to `COCC1CCN(CCCOc2nn(Cc3ccc(Cl)cc3)c3ccccc23)CC1` [EBP530], the EC50 in the series on HCV 1b RNA replicon (setting [2]) was 7.9 µM; with Huh7 cell line (setting [3]) it was more than 25 µM.
For `C[C@H]1CCCN1CCCOc1nn(Cc2ccc(Cl)cc2)c2ccc(Cl)cc12` [EBP646], in that order: 6.6 µM and more than 25 µM.
For the molecule `C[C@H]1CCCN1CCCOc1nn(Cc2ccc(Cl)cc2)c2ccc(-c3cccnc3)cc12` [EBP846], in the series on HCV 1b RNA replicon (read-out: 1b EC50, 1b replicon, Huh7, 48 hours, top concentration 25 μM), the EC50 came to 8.2 µM.
In the case of `CS(=O)(=O)Nc1ccc2c(c1)c(OCCCN1CCCC1)nn2Cc1ccc(Cl)cc1` [EBP532], the figures for the EC50 in the series with HCV 1b RNA replicon (setting [2]) and in the series with Huh7 cell line (setting [3]) were 8.5 µM and more than 25 µM, respectively.
Turning to `Cc1cc2cn(Cc3ccc(Cl)cc3)nc2cc1Br` [Compound 207], in the series with HCV RNA replication, the activity at 5 µM is more than 80% and the activity at 10 µM was 55 to 80%.
Take `Cc1cc2nn(Cc3ccc(Cl)cc3)cc2cc1Br` [Compound 208]: in the series with HCV RNA replication, the activity at 5 µM was 55 to 80% and the activity at 10 µM lay within 20 to 54%.
In the case of `Clc1ccc(Cn2cc3cc(Br)ccc3n2)cc1` [Compound 211], in the series with HCV RNA replication, the activity at 5 µM is more than 80% and the activity at 10 µM is 55 to 80%.
For the molecule `Cl.c1ccc(Cn2nc(OCCN3CCCCC3)c3ccccc32)cc1` [Compound 190], in the series on HCV RNA replication, the activity at 5 µM was more than 80% and the activity at 10 µM lay in the range of 55 to 80%.
